Test results from the supplement of paper PMC10307832.

How the values were obtained:
Experiment in all cases: relative viability (nuclei count vs DMSO), 5 days (fraction); higher = more cells survive
Palbociclib + Linsitinib = compound: CC(=O)c1c(C)c2cnc(Nc3ccc(N4CCNCC4)cn3)nc2n(C2CCCC2)c1=O [Palbociclib] + C[C@]1(O)C[C@@H](c2nc(-c3ccc4ccc(-c5ccccc5)nc4c3)c3c(N)nccn32)C1 [Linsitinib] (partner 1 µM)
In short: (§1)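 Relative viability is defined as nuclei in treated wells over nuclei in vehicle wells. Duplicate plates were run and medians reported. Lung cancer cell lines in 1536-well plates were dosed by pin tool one day after seeding, with one drug or with a fixed anchor-drug dose plus five library-drug doses (not always all listed) in √10 steps, and nuclei were counted after 5 days.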

Palbociclib + OSI-027 = compound: CC(=O)c1c(C)c2cnc(Nc3ccc(N4CCNCC4)cn3)nc2n(C2CCCC2)c1=O [Palbociclib] + COc1cccc2cc(-c3nc([C@H]4CC[C@H](C(=O)O)CC4)n4ncnc(N)c34)[nH]c12 [OSI-027] (partner 0.5 µM)
In short: as §1

Palbociclib + Navitoclax = compound: CC(=O)c1c(C)c2cnc(Nc3ccc(N4CCNCC4)cn3)nc2n(C2CCCC2)c1=O [Palbociclib] + CC1(C)CCC(c2ccc(Cl)cc2)=C(CN2CCN(c3ccc(C(=O)NS(=O)(=O)c4ccc(N[C@H](CCN5CCOCC5)CSc5ccccc5)c(S(=O)(=O)C(F)(F)F)c4)cc3)CC2)C1 [Navitoclax] (partner 0.5 µM)
In short: as §1

Palbociclib + Pictilisib = compound: CC(=O)c1c(C)c2cnc(Nc3ccc(N4CCNCC4)cn3)nc2n(C2CCCC2)c1=O [Palbociclib] + CS(=O)(=O)N1CCN(Cc2cc3nc(-c4cccc5[nH]ncc45)nc(N4CCOCC4)c3s2)CC1 [Pictilisib] (partner 1 µM)
In short: as §1

Cell Line	relative viability (Palbociclib + Linsitinib; first compound 0.01 µM)	relative viability (Palbociclib + Linsitinib; first compound 0.03162 µM)	relative viability (Palbociclib + Linsitinib; first compound 0.1 µM)	relative viability (Palbociclib + Linsitinib; first compound 0.3162 µM)	relative viability (Palbociclib + Linsitinib; first compound 1 µM)	relative viability (Palbociclib + OSI-027; first compound 0.01 µM)	relative viability (Palbociclib + OSI-027; first compound 0.1 µM)	relative viability (Palbociclib + OSI-027; first compound 0.3162 µM)	relative viability (Palbociclib + OSI-027; first compound 1 µM)	relative viability (Palbociclib + Navitoclax; first compound 0.01 µM)	relative viability (Palbociclib + Navitoclax; first compound 0.03162 µM)	relative viability (Palbociclib + Navitoclax; first compound 0.1 µM)	relative viability (Palbociclib + Navitoclax; first compound 0.3162 µM)	relative viability (Palbociclib + Navitoclax; first compound 1 µM)	relative viability (Palbociclib + Pictilisib; first compound 0.01 µM)	relative viability (Palbociclib + Pictilisib; first compound 0.03162 µM)	relative viability (Palbociclib + Pictilisib; first compound 0.1 µM)	relative viability (Palbociclib + Pictilisib; first compound 0.3162 µM)	relative viability (Palbociclib + Pictilisib; first compound 1 µM)	relative viability (Palbociclib + OSI-027; first compound 0.03162 µM)
NCI-H1793	0.722	0.681	0.647	0.583	0.518	0.262	0.238	0.223	0.186	0.382	0.38	0.506	0.394	0.369	0.241	0.351	0.285	0.224	0.219	
PC-14	1.04	0.847	0.869	0.802	0.689	0.964	0.572	0.603	0.362	1.14	0.932	0.908	0.877	0.605	0.764	0.653	0.579	0.537	0.254	0.515
SW 900						0.582	0.399	0.322	0.358											
HCC-78	0.46	0.329	0.302	0.39	0.273	0.424	0.315	0.319	0.254	0.812	0.473	0.382	0.447	0.201	0.206	0.202	0.19	0.251	0.154	0.382
LC-2-ad	0.884		0.735	0.611	0.395	0.746	0.604	0.625	0.474	0.555		0.402	0.383	0.337	0.45		0.346	0.305	0.223	
NCI-H1755	1.01	0.987	0.873	0.814	0.711	0.677	0.555	0.633	0.391	1.03	0.974	0.876	0.818	0.715	0.437	0.297	0.337	0.29	0.263	0.496
NCI-H358	0.673	0.559	0.354	0.247	0.229	0.807	0.501	0.455	0.138						0.277	0.189	0.185	0.213	0.155	0.62
A549	0.619	0.38	0.316	0.457	0.274					1.09	0.904	0.667	0.515	0.335	0.472	0.318	0.293	0.283	0.203	
NCI-H1299	0.961	0.983	0.908	0.866	0.685					1.09	0.949	0.909	0.846	0.715	0.762	0.486	0.541	0.347	0.259	
NCI-H727	0.226	0.285	0.283	0.289	0.282	0.468	0.367	0.494	0.438	0.429	0.406	0.324	0.266	0.326	0.401	0.287	0.258	0.318	0.239	0.477
A-427	1.15	1.08	1.01	0.942	0.806	0.467	0.282	0.33	0.308	0.978	0.941	0.869	0.874	0.656	0.703	0.648	0.592	0.447	0.347	0.271
Calu-6	0.982	0.921	0.784	0.746	0.578					0.863	0.792	0.683	0.549	0.479	0.908	0.779	0.698	0.508	0.371	
NCI-H650	0.866		0.646	0.635	0.436	0.53	0.393	0.376	0.331						1.02		0.364	0.659	0.489	0.309
NCI-H661	0.547	0.529	0.46	0.421	0.351	0.77	0.464	0.354	0.313						0.407	0.409	0.379	0.3	0.251	0.552
NCI-H2170						0.72	0.61	0.638	0.407	0.624	0.552	0.74	0.578	0.549	0.346	0.252	0.253	0.239	0.206	0.642
IA-LM	0.492	0.399	0.395	0.221	0.118					0.589	0.43	0.234	0.206	0.119	0.299	0.215	0.167	0.113	0.0912	
NCI-H1648						0.264	0.256	0.27	0.251											
ChaGo-K-1						0.594	0.661	0.563	0.594	1.22	0.463	1.08	1.09	1.18	0.836	0.51	0.753	0.955	1.12	0.396
NCI-H1650						0.701	0.522	0.481	0.403	1.41	1.07	0.948	1.03	0.673	0.548	0.223	0.383	0.414	0.312	0.404
LCLC-103H	1.04	1.15	0.918	1	0.826	0.432	0.406	0.358	0.302						0.564	0.536	0.543	0.591	0.436	0.368
NCI-H1703	1.11	0.64	0.673	0.617	0.323					1.18	0.756	0.753	0.394	0.28	0.225	0.211	0.242	0.252	0.21	
